Where a name gives a salt, the structure may show the parent alone. Read-outs that look alike come from different tables or passages of the source.
Test: Solubility of bendamustine HCl in 0.9% saline with non-aqueous solubilizer (Example 1)
Type: physicochemical
Details: for solubility at 30 min: 22.5 °C; for solubility at 30 min / solubility at 24 h: thermodynamic from solid; for solubility at 24 h: 5 °C
Method: Essentially, an excess of bendamustine HCl was added to solvents comprising of various volume percent of the non-aqueous solubilizer in 0.9% saline, and allowed to equilibrate with shaking for 30 minutes at room temperature, or for 24 hours at refrigerated temperature. At the end of the equilibration step, the suspensions were filtered through a 0.2 micron filter to remove undissolved bendamustine, and the filtrate solutions analyzed for bendamustine HCl content using a HPLC assay; quantification was performed against a bendamustine HCl reference standard.

Cn1c(CCCC(=O)O)nc2cc(N(CCCl)CCCl)ccc21 [bendamustine HCl]
solubility at 30 min (0.9% saline with 5 mg/ml monothioglycerol, saline or isotonic, Room temperature, API Source B, solvent also contained 5 mg/ml monothioglycerol, 100.0% Normal Saline, 0.0% Non-aqueous Solubilizer, read-out: Solubility of bendamustine HCl): ~3300 µg/mL | solubility at 24 h (0.9% saline, saline or isotonic, 5° C., API Source A, 100.0% Normal Saline, 0.0% Non-aqueous Solubilizer (90:10 PEG 400/PG), read-out: Solubility of bendamustine HCl): 1180 µg/mL | solubility at 30 min (0.9% saline, saline or isotonic, Room temperature, API Source A, 100.0% Normal Saline, 0.0% Non-aqueous Solubilizer (90:10 PEG 400/PG), read-out: Solubility of bendamustine HCl): 3460 µg/mL | solubility at 24 h (aqueous with cosolvent or surfactant or cyclodextrin, 5° C., API Source A, 80.0% Normal Saline, 20.0% Non-aqueous Solubilizer (90:10 PEG 400/PG), read-out: Solubility of bendamustine HCl): 3820 µg/mL | solubility at 24 h (aqueous with cosolvent or surfactant or cyclodextrin, 5° C., API Source A, 82.5% Normal Saline, 17.5% Non-aqueous Solubilizer (90:10 PEG 400/PG), read-out: Solubility of bendamustine HCl): 3330 µg/mL | solubility at 24 h (aqueous with cosolvent or surfactant or cyclodextrin, 5° C., API Source A, 85.0% Normal Saline, […] Non-aqueous Solubilizer (90:10 PEG 400/PG), read-out: Solubility of bendamustine HCl): 2900 µg/mL | solubility at 24 h (aqueous with cosolvent or surfactant or cyclodextrin, 5° C., API Source A, 90.0% Normal Saline, 10.0% Non-aqueous Solubilizer (90:10 PEG 400/PG), read-out: Solubility of bendamustine HCl): 2430 µg/mL | solubility at 24 h (aqueous with cosolvent or surfactant or cyclodextrin, 5° C., API Source A, 95.0% Normal Saline, 5.0% Non-aqueous Solubilizer (90:10 PEG 400/PG), read-out: Solubility of bendamustine HCl): 2020 µg/mL | solubility at 24 h (aqueous with cosolvent or surfactant or cyclodextrin, refrigerated, 19.4% of the non-aqueous component in the final 100 ml admixture, read-out: solubility of bendamustine HCl in final admixture): ~3800 µg/mL | solubility at 30 min (aqueous with cosolvent or surfactant or cyclodextrin, Room temperature, API Source A, 70.0% Normal Saline, 30.0% Non-aqueous Solubilizer (90:10 PEG 400/PG), read-out: Solubility of bendamustine HCl): 12000 µg/mL | solubility at 30 min (aqueous with cosolvent or surfactant or cyclodextrin, Room temperature, API Source A, 80.0% Normal Saline, 20.0% Non-aqueous Solubilizer (90:10 PEG 400/PG), read-out: Solubility of bendamustine HCl): 8640 µg/mL | solubility at 30 min (aqueous with cosolvent or surfactant or cyclodextrin, Room temperature, API Source A, 85.0% Normal Saline, […] Non-aqueous Solubilizer (90:10 PEG 400/PG), read-out: Solubility of bendamustine HCl): 7010 µg/mL | solubility at 30 min (aqueous with cosolvent or surfactant or cyclodextrin, Room temperature, API Source A, 90.0% Normal Saline, 10.0% Non-aqueous Solubilizer (90:10 PEG 400/PG), read-out: Solubility of bendamustine HCl): 5630 µg/mL | solubility at 30 min (aqueous with cosolvent or surfactant or cyclodextrin, Room temperature, API Source A, 95.0% Normal Saline, 5.0% Non-aqueous Solubilizer (90:10 PEG 400/PG), read-out: Solubility of bendamustine HCl): 4430 µg/mL | solubility at 30 min (aqueous with cosolvent or surfactant or cyclodextrin, room temperature, 16.1% of the non-aqueous component in the final 50 ml admixture, read-out: room temperature solubility of bendamustine HCl in final admixture): ~6500 µg/mL | solubility at 30 min (saline or isotonic, Room temperature, API Source A, 97.5% Normal Saline, 2.5% Non-aqueous Solubilizer (90:10 PEG 400/PG), read-out: Solubility of bendamustine HCl): 3990 µg/mL | solubility at 30 min (saline or isotonic, Room temperature, API Source B, solvent also contained 5 mg/ml monothioglycerol, 97.5% Normal Saline, 2.5% Non-aqueous Solubilizer, read-out: Solubility of bendamustine HCl): 3890 µg/mL | Solubility of bendamustine HCl (Room temperature, API Source B, solvent also contained 5 mg/ml monothioglycerol, 70.0% Normal Saline, 30.0% Non-aqueous Solubilizer): 11407 µg/mL | Solubility of bendamustine HCl (Room temperature, API Source B, solvent also contained 5 mg/ml monothioglycerol, 80.0% Normal Saline, 20.0% Non-aqueous Solubilizer, HCl): 8492 µg/mL | Solubility of bendamustine HCl (Room temperature, API Source B, solvent also contained 5 mg/ml monothioglycerol, 82.5% Normal Saline, 17.5% Non-aqueous Solubilizer): 7641 µg/mL | Solubility of bendamustine HCl (Room temperature, API Source B, solvent also contained 5 mg/ml monothioglycerol, 85.0% Normal Saline, […] Non-aqueous Solubilizer): 6554 µg/mL | Solubility of bendamustine HCl (Room temperature, API Source B, solvent also contained 5 mg/ml monothioglycerol, 87.5% Normal Saline, 12.5% Non-aqueous Solubilizer): 5825 µg/mL | Solubility of bendamustine HCl (Room temperature, API Source B, solvent also contained 5 mg/ml monothioglycerol, 90.0% Normal Saline, 10.0% Non-aqueous Solubilizer): 5351 µg/mL | Solubility of bendamustine HCl (Room temperature, API Source B, solvent also contained 5 mg/ml monothioglycerol, 92.5% Normal Saline, 7.5% Non-aqueous Solubilizer): 4742 µg/mL | Solubility of bendamustine HCl (Room temperature, API Source B, solvent also contained 5 mg/ml monothioglycerol, 95.0% Normal Saline, 5.0% Non-aqueous Solubilizer): 4204 µg/mL
